What all share (assay type): in vivo
In assay [1] the test system is Brown Planthopper (Nilaparvata lugens, NILALU, BPH). As to the kind of experiment: Bioassay 6: brown planthopper, sprayed rice seedlings. The settings on record: AI alone, AI Rate 0.049 g/ha, 6 days. As for the experimental part:
At these rates, F1 and the individual active ingredients were tested at a ratio of 1:1. […] F1 and triflumezopyrim were tested at a ratio of 16:1. Test solutions were prepared containing F1, the individual active ingredients, and mixtures of F1 with each of the active ingredients. Test solutions were prepared by weighing 5 mg of each test chemistry (either alone or in combination depending on the treatment) into a 25 mL glass vial. Next, 1 mL of acetone was added to each vial to dissolve the test chemistries, followed by 19 mL of water with 0.125% Tween 20 adjuvant. This test solution represented the 50 g/ha treatment, which was then serially diluted four-fold to create the three lower rates of 12.5, 3.125, and 0.78 g/ha. Triflumezopyrim was prepared in a similar manner, but two additional serial dilutions were conducted to create solutions representing 6 rates of 12.5, 3.125, 0.78, 0.19, 0.049, and 0.012 g/ha. The higher two doses were discarded, and the four lower doses were used for testing. Each rate was replicated four times, and solvent blanks were used as control treatments.
Five (5) rice seedlings (10-12 days old) planted in 3-inch pots were used as test plants. Rice seedlings were grown in soil and the soil was covered with a 2% agar solution. The test solutions were applied to test plants using a Devries laboratory research sprayer, set to spray at 200 liters per hectare (L/ha) using a TeeJet hollow cone nozzle. Following application, the rice seedlings were dried for 1 hour, after which a single clear plastic tube (2 inches in diameter×12 inches in height) was placed over the seedlings in each pot. The tube was pushed down into the agar to create a sealed test chamber. The agar prevented insects from hiding in the soil and made adult collection and grading easier. Ten to fifteen (10-15) 5th instar BPH nymphs were transferred to each test chamber using a vacuum aspirator. Immediately following BPH infestation, the test chamber was covered with a piece of grade 90 cheesecloth and secured with a rubber band, sealing the test chamber. The test chambers were held at 25° C. for 6 days, after which the total number of live insects was counted in each test chamber. Percent control was measured using Abbott's correction formula (W. S. Abbott, J. Econ. Entomol. 18 (1925), pp. 265-267) as follows:
where X=No. of live insects on solvent check and Y=No. of live insects in treated chambers. In Table B6 the “Expected % Control” was calculated using the method described in Colby S. R., Weeds, 1967, 15, 20-22. Bioassay 7: Corn Earworm (Helicoverpa zea, HELIZE, “CEW”), Fall Armyworm (Spodoptera frugiperda, LAPHFR, “FAW”), Beet Armyworm (Spodoptera exigua, LAPHEG, “BAW”),and Soybean Looper (Chrysodeixis includens, PSEPIN, “SBL”).

The subject of assay [2] is Corn Earworm (Helicoverpa zea, HELIZE, CEW). As to the kind of experiment: Bioassay 4: corn earworm, artificial diet, 128-cell tray. The settings on record: AI alone. In outline: (§1)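 Test solutions (0.0000004–0.04% w/v, i.e. 0.00005–5 μg/cm² on diet) were pipetted onto artificial lepidopteran diet and one 2nd-instar larva was placed per cell, 8 replicates per species, held at ~26° C. Live larvae were counted after 5 days; percent control used Abbott's correction against a solvent check.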

Assay [3] relates to Western Flower Thrips (Frankliniella occidentalis, FRANOC, WFT). The experiment in a line: Bioassay 3: western flower thrips, cotton leaf disc dip. The conditions noted are these: 3 days. As for the experimental part: Stock solutions of F1 and various active ingredients were prepared initially at a concentration of 0.1 mg/mL using acetone as a diluent. Stock solutions were prepared with F1 as well as for each of the active ingredients individually. Test solutions were prepared from the stock solutions. Test solutions were prepared containing F1, the individual active ingredients, and mixtures of F1 with each of the active ingredients. The test solutions for F1 and the individual active ingredients were prepared by adding 500 μL of stock solution to a 25 mL glass vial, then adding 500 μL of acetone, followed by the addition of 9 mL water with 0.025% Tween® 20 to create a 0.0005% (w/v) solution. The test solutions containing mixtures of F1, and the individual active ingredients were prepared by adding 500 μL of the active ingredient stock solution to a 25 mL glass vial, followed by 500 μL of the F1 stock solution, then by the addition of 9 mL water with 0.025% Tween® 20 to create a test solution containing 0.0005% (w/v) F1 and 0.0005% (w/v) of the active ingredient. Each test solution was serially diluted to create desired doses of test solutions (0.0005% (w/v), 0.000125% (w/v), 0.00003125% (w/v), 0.0000078% (w/v), and 0.00000195% (w/v)).
The test solutions were tested against WFT using the following procedure: Leaf discs (2.7 cm in diameter) were cut from the true leaves of cotton plants. Leaf discs were dipped into the test solutions and shaken to ensure complete coverage of the leaf disc and then placed in Millipore® PetriSlides containing a filter paper disc. Treated leaf discs were air dried for approximately 1 hour. Each leaf disc was infested with 5 WFT (9-10-day old nymphs) by placement on each leaf disc, and the PetriSlides were capped to prevent escape. Each treatment was replicated three times and the test treatments were held at approximately 26° C. and ambient relative humidity (RH) prior to grading. Reference discs (solvent check) were treated with the diluent only. Evaluation was conducted by counting the number of live WFT under magnification 3 days after treatment. Percent control was measured using Abbott's correction formula (W. S. Abbott, J. Econ. Entomol. 18 (1925), pp. 265-267) as follows:
where X=No. of live nymphs on solvent check leaf discs and Y=No. of live nymphs on treated leaf discs. In Table B3 the “Expected % Control” was calculated using the method described in Colby S. R., Weeds, 1967, 15, 20-22. Bioassay 4: Corn Earworm (Helicoverpa zea, HELIZE, “CEW”), Fall Armyworm (Spodoptera frugiperda, LAPHFR, “FAW”), and Soybean Looper (Chrysodeixis includens, PSEPIN, “SBL”).

The subject of assay [4] is Soybean Looper (Chrysodeixis includens, PSEPIN, SBL). The experiment in a line: Bioassay 4: soybean looper, artificial diet, 128-cell tray. The conditions noted are these: AI alone. In outline:
as §1

The subject of assay [5] is Fall Armyworm (Spodoptera frugiperda, LAPHFR, FAW). As to the kind of experiment: Bioassay 4: fall armyworm, artificial diet, 128-cell tray. The conditions noted are these: AI alone. An outline of the steps:
as §1

Assay [6] relates to Sweet Potato Whitefly (Bemisia tabaci, BEMITA, SPW). The experiment in a line: Bioassay 2: sweet potato whitefly, cotton seedling foliar spray. The settings on record: AI alone. As for the experimental part: Stock solutions were prepared with F1 as well as for each of the active ingredients individually. Test solutions were prepared from the stock solutions. Test solutions were prepared containing F1, the individual active ingredients, and mixtures of F1 with each of the active ingredients. The test solutions for F1 and the individual active ingredients were prepared by adding 500 μL of stock solution to a 25 mL glass vial, then adding 500 μL of acetone, followed by the addition of 9 mL water with 0.025% Tween® 20 to create a 0.001% (w/v) solution. The test solutions containing mixtures of F1, and the individual active ingredients were prepared by adding 500 μL of the active ingredient stock solution to a 25 mL glass vial, followed by 500 μL of the F1 stock solution, then by the addition of 9 mL water with 0.025% Tween® 20 to create a test solution containing 0.001% (w/v) F1 and 0.001% (w/v) of the active ingredient. Each test solution was serially diluted to create desired doses of test solutions (0.001% (w/v), 0.0001% (w/v), 0.00001% (w/v), 0.000001% (w/v), 0.0000001% (w/v), and 0.00000001% (w/v)).
The test solutions were tested against SPW using the following procedure: Cotton seedlings grown in 3-inch pots, pruned so that only one true leaf remained, were used as test substrate. Adult B. tabaci were allowed to colonize the cotton plants and lay eggs for 24 hours after which all adults were removed from the plants using compressed air. Plants were monitored for egg development, and when crawler emergence was underway (>25% emergence based on visual examination using a microscope), the plants were sprayed using the test solutions and methods described above for green peach aphids (GPA). Treated plants were held in a holding room at approximately 25° C. and ambient relative humidity (RH) prior to grading. Evaluation was conducted by counting the number of developed 2-3 instar nymphs per plant under a microscope 7-9 days after treatment. Percent control was measured using Abbott's correction formula (W. S. Abbott, J. Econ. Entomol. 18 (1925), pp. 265-267) as follows:
where X=No. of live nymphs on solvent check plants and Y=No. of live nymphs on treated plants. In Table B2 the “Expected % Control” was calculated using the method described in Colby S. R., Weeds, 1967, 15, 20-22. Bioassay 3: Western Flower Thrips (Frankliniella occidentalis, FRANOC, “WFT”).

“And” between values parts separate entries of the source, which are not always exact repeats. Identical values can stand only once.

On to `CCN(C(=O)CCS(C)(=O)=O)c1sc(-c2cccnc2)nc1Cl` [AI-1, N-(4-chloro-2-(pyridin-3-yl)thiazol-5-yl)-N-ethyl-3-(methylsulfonyl)propanamide], for which the “Average % Control AI” value in assay [1] was found to be 0.0%; in assay [2] (0.000004 wt %), 0.0%; in assay [2] (0.00004 wt %), 0.0%; in assay [3] (AI alone at 1:1 rate to F1 0.78 (10^-6 Wt %)), 9.5%; in assay [4] (0.000004 wt %), 12.5%; in assay [5] (0.000004 wt %), 0.0%.
Regarding `N#CCNC(=O)c1cnccc1C(F)(F)F` [Flonicamid], the “Average % Control AI” value is 5.4% and 1.1% in assay [1]; 0.0% in assay [2] (0.000004 wt %); 0.0% in assay [2] (0.00004 wt %); 0.0% in assay [6] (Wt % AI 0.0001, 7-9 days); 0.0% in assay [4] (0.000004 wt %); 0.0% in assay [4] (0.00004 wt %). For the same molecule, the “Average % Control AI” value in assay [5] (0.000004 wt %) and in assay [5] (0.00004 wt %) was 0.0% each time.
For `O=C1C=C(N(Cc2ccc(Cl)nc2)CC(F)F)CO1` [Flupyradifurone], the “Average % Control AI” value in assay [1] was 16.3% and 7.6%; in assay [2] (0.000004 wt %), 0.0%; in assay [2] (0.00004 wt %), 0.0%; in assay [6] (Wt % AI 0.00001, 7-9 days), 22.9%; in assay [6] (Wt % AI 0.0001, 7-9 days), 39.2%; in assay [4] (0.000004 wt %), 0.0%. Moreover, the “Average % Control AI” value in assay [4] (0.00004 wt %), in assay [5] (0.000004 wt %) and in assay [5] (0.00004 wt %) was 0.0% throughout.
With Abamectin, the “Average % Control AI” value in assay [1] was found to be 40.7%; in assay [2] (0.000004 wt %) it was 0.0%; in assay [2] (0.00004 wt %), 0.0%; in assay [3] (AI alone at 1:1 rate to F1 3.125 (10^-6 Wt %)), 31.0%; in assay [5] (0.00004 wt %) it was 0.0%.
As to Spinetoram, the “Average % Control AI” value in assay [1] was determined as 2.5%; in assay [2] (0.000004 wt %) it was 0.0%; in assay [2] (0.00004 wt %), 25.0%; in assay [4] (0.000004 wt %), 25.0%; in assay [5] (0.000004 wt %), 0.0%.

The values above are taken from patent publication US20260182575A1, “MOLECULES HAVING PESTICIDAL UTILITY AND INTERMEDIATES AND PROCESSES RELATED THERETO” (CORTEVA AGRISCIENCE LLC, priority 2022, published 2026).
